The IC50 is the concentration that gives 50% inhibition. Lower therefore signals greater potency in that assay.

In the test the target is T1, Human neutrophil elastase (Homo sapiens, UniProt P08246).
T1 construct: purchased Calbiochem 324681
T1 sequence (P08246 30-267): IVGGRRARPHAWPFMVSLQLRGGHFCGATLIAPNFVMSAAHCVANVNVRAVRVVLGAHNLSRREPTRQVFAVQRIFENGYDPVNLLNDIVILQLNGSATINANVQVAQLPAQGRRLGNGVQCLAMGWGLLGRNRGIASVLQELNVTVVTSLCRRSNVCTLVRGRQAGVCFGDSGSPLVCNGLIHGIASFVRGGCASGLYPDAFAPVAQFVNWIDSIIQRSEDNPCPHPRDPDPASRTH
Briefly: Human Neutrophil Elastase Assay. It counts as biochemical. Conditions: Neutrophil Elastase assay; substrate MeOSuc-Ala-Ala-Pro-Val-AMC 250 μM; 15 min preincubation, 60 min incubation at room temperature; pH 7.5. The essentials: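 Run in 100 mM Tris, 500 mM NaCl, pH 7.5 with 0.01% BSA, with compounds prediluted in DMSO then buffer (5% DMSO final). Fluorescence was read at 380 nm excitation/460 nm emission after enzyme inactivation. Values were normalised to inactivated-enzyme (0%) and uninhibited-enzyme (100%) controls.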

Where only a bound is given, the exact number is not on record here.

As for `CNC(=O)c1cn(Cc2ccc(C#N)cc2F)c(C)c(-c2cccc(C(F)F)c2)c1=O` [Example 32], the IC50 came out at 11.8 nM. Under `CNC(=O)c1cn(Cc2ccc(C#N)c(F)c2)c(C)c(-c2cccc(C(F)F)c2)c1=O` [Example 33] stands 14 nM; under `CNC(=O)c1cn(Cc2ccc(C#N)cn2)c(C)c(-c2cccc(C(F)F)c2)c1=O` [Example 34], 31.2 nM; under `CCNC(=O)c1cn(C(CC)c2ccc(C#N)cc2)c(C)c(-c2cccc(C(F)(F)F)c2)c1=O` (stereo not shown) [Example 35, 1-[1-(4-Cyano-phenyl)-propyl]-6-methyl-4-oxo-5-(3-trifluoromethyl-phenyl)-1,4-dihydro-pyridine-3-carboxylic acid ethylamide], 7.8 nM.

`CCC(c1ccc(C#N)cc1)n1cc(C(=O)NC)c(=O)c(-c2ccnc(C(F)(F)F)c2)c1C` (stereo not shown) [Example 36, 1-[1-(4-Cyano-phenyl)-propyl]-2-methyl-4-oxo-2′-trifluoromethyl-1,4-dihydro-[3,4′]bipyridinyl-5-carboxylic acid methylamide]: the IC50 came to 18.4 nM. Under `CNC(=O)c1cn(C2CCc3cc(C#N)ccc32)c(C)c(-c2cccc(C(F)(F)F)c2)c1=O` (stereo not shown) [Example 37, 1-(5-Cyano-indan-1-yl)-6-methyl-4-oxo-5-(3-trifluoromethyl-phenyl)-1,4-dihydro-pyridine-3-carboxylic acid methylamide] stands 13.7 nM; under `CCNC(=O)c1cn(C(C)c2ccc(C#N)cc2)c(C)c(-c2ccnc(C(F)F)c2)c1=O` (stereo not shown) [Example 38, 1-[1-(4-Cyano-phenyl)-ethyl]-2′-difluoromethyl-2-methyl-4-oxo-1,4-dihydro-[3,4′]bipyridinyl-5-carboxylic acid ethylamide], 11 nM. Consider `Cc1c(-c2cccc(C(F)F)c2)c(=O)c(C(=O)NCc2ccc(S(C)(=O)=O)cc2)cn1Cc1ccc(C#N)c(F)c1` [Example 39, 1-(4-Cyano-3-fluoro-benzyl)-5-(3-difluoromethyl-phenyl)-6-methyl-4-oxo-1,4-dihydro-pyridine-3-carboxylic acid 4-methanesulfonyl-benzylamide], for which the IC50 was less than 1 nM. `Cc1c(-c2cccc(C(F)F)c2)c(=O)c(C(=O)NCc2ccc(S(C)(=O)=O)cc2)cn1Cc1ccc(C#N)cn1` [Example 40, 1-(5-Cyano-pyridin-2-ylmethyl)-5-(3-difluoromethyl-phenyl)-6-methyl-4-oxo-1,4-dihydro-pyridine-3-carboxylic acid 4-methanesulfonyl-benzylamide]: the IC50 is less than 1 nM.

In the case of `Cc1c(-c2cccc(C(F)F)c2)c(=O)c(C(=O)NCc2ccc(S(C)(=O)=O)cc2)cn1Cc1ccc(C#N)cc1F` [Example 41, 1-(4-Cyano-2-fluoro-benzyl)-5-(3-difluoromethyl-phenyl)-6-methyl-4-oxo-1,4-dihydro-pyridine-3-carboxylic acid 4-methanesulfonyl-benzylamide], the IC50 is less than 1 nM. `CNC(=O)c1cn(Cc2ccc(C#N)cc2F)c(C)c(-c2ccnc(C(F)(F)F)c2)c1=O` [Example 42, 1-(4-Cyano-2-fluoro-benzyl)-2-methyl-4-oxo-2′-trifluoromethyl-1,4-dihydro-[3,4′]bipyridinyl-5-carboxylic acid methylamide] came in with a concentration for half-maximal inhibition (IC50) of 46 nM. Under `CNC(=O)c1cn(Cc2ccc(C#N)c(F)c2)c(C)c(-c2ccnc(C(F)(F)F)c2)c1=O` [Example 43, 1-(4-Cyano-3-fluoro-benzyl)-2-methyl-4-oxo-2′-trifluoromethyl-1,4-dihydro-[3,4′]bipyridinyl-5-carboxylic acid methylamide] stands 48.4 nM; under `CNC(=O)c1cn(Cc2ccc(C#N)cn2)c(C)c(-c2ccnc(C(F)(F)F)c2)c1=O` [Example 44, 1-(5-Cyano-pyridin-2-ylmethyl)-2-methyl-4-oxo-2′-trifluoromethyl-1,4-dihydro-[3,4′]bipyridinyl-5-carboxylic acid methylamide], 94.6 nM. To `Cc1c(-c2cccc(C(F)(F)F)c2)c(=O)c(C(=O)NCc2ccc(S(C)(=O)=O)cc2)cn1C1(c2ccc(C#N)cc2)CC1` [Example 45, 1-[1-(4-Cyano-phenyl)-cyclopropyl]-6-methyl-4-oxo-5-(3-trifluoromethyl-phenyl)-1,4-dihydro-pyridine-3-carboxylic acid 4-methanesulfonyl-benzylamide] belongs 4.6 nM. To `Cc1c(-c2cccc(C(F)(F)F)c2)c(=O)c(C(=O)NCC#N)cn1Cc1ccc(C#N)cc1` [Example 46, 1-(4-Cyano-benzyl)-6-methyl-4-oxo-5-(3-trifluoromethyl-phenyl)-1,4-dihydro-pyridine-3-carboxylic acid cyanomethyl-amide] belongs 2.3 nM; to `COCCNC(=O)c1cn(C(C)c2ccc(C#N)cn2)c(C)c(-c2cccc(C(F)(F)F)c2)c1=O` (stereo not shown) [Example 47.1], 12.9 nM. For `Cc1c(-c2cccc(C(F)(F)F)c2)c(=O)c(C(=O)NC2CCNC2=O)cn1C(C)c1ccc(C#N)cn1` (stereo not shown) [Example 47.2], the IC50 was 7.3 nM. To `Cc1c(-c2cccc(C(F)(F)F)c2)c(=O)c(C(=O)NCC(F)(F)F)cn1C(C)c1ccc(C#N)cn1` (stereo not shown) [Example 47.3] belongs 10.7 nM; to `Cc1c(-c2cccc(C(F)(F)F)c2)c(=O)c(C(=O)NCCC(C)O)cn1C(C)c1ccc(C#N)cn1` (stereo not shown) [Example 47.4], 12.2 nM. To `Cc1c(-c2cccc(C(F)(F)F)c2)c(=O)c(C(=O)NCC2CC2)cn1C(C)c1ccc(C#N)cn1` (stereo not shown) [Example 47.5] belongs 16.7 nM. Under `Cc1c(-c2cccc(C(F)(F)F)c2)c(=O)c(C(=O)NCCF)cn1C(C)c1ccc(C#N)cn1` (stereo not shown) [Example 47.6] stands 12 nM; under `Cc1c(-c2cccc(C(F)(F)F)c2)c(=O)c(C(=O)NCC2(O)CC2)cn1C(C)c1ccc(C#N)cn1` (stereo not shown) [Example 47.7], 30.1 nM; under `Cc1c(-c2cccc(C(F)(F)F)c2)c(=O)c(C(=O)NC2CCOC2)cn1C(C)c1ccc(C#N)cn1` (stereo not shown) [Example 47.9], 67.2 nM. In turn, `Cc1c(-c2cccc(C(F)(F)F)c2)c(=O)c(C(=O)NC2CCOCC2)cn1C(C)c1ccc(C#N)cn1` (stereo not shown) [Example 47.10] showed an IC50 of 19.2 nM.

The compound `Cc1c(-c2cccc(C(F)(F)F)c2)c(=O)c(C(=O)NCC(C)(C)O)cn1C(C)c1ccc(C#N)cn1` (stereo not shown) [Example 47.11] displayed an IC50 of 63.5 nM. To `Cc1c(-c2cccc(C(F)(F)F)c2)c(=O)c(C(=O)NC2CCN(C)C2=O)cn1C(C)c1ccc(C#N)cn1` (stereo not shown) [Example 47.12] belongs 7.3 nM; to `Cc1c(-c2cccc(C(F)(F)F)c2)c(=O)c(C(=O)NCc2ccc(S(C)(=O)=O)cc2)cn1C(C)c1ccc(C#N)cn1` (stereo not shown) [Example 47.13], less than 1 nM.

Consider `Cc1c(-c2cccc(C(F)(F)F)c2)c(=O)c(C(=O)NC(C)C#N)cn1C(C)c1ccc(C#N)cn1` (stereo not shown) [Example 47.16], for which the IC50 worked out at 6.2 nM. To `Cc1c(-c2cccc(C(F)(F)F)c2)c(=O)c(C(=O)NC2(C#N)CC2)cn1C(C)c1ccc(C#N)cn1` (stereo not shown) [Example 47.18] belongs 6.4 nM; to `Cc1c(-c2cccc(C(F)(F)F)c2)c(=O)c(C(=O)NCC(F)F)cn1C(C)c1ccc(C#N)cn1` (stereo not shown) [Example 47.19], 10.3 nM. To `Cc1c(-c2cccc(C(F)(F)F)c2)c(=O)c(C(=O)NCC#N)cn1C(C)c1ccc(C#N)cn1` (stereo not shown) [Example 47.20] belongs 2.5 nM.
